US20070010463A1, “Remedies for diseases caused by strengthened vascular smooth muscle using 14-membered ring macrolid compounds” (priority 2003, published 2007)
Like-named read-outs stand apart in the source and are kept apart here.

How the values were obtained:
[1] = test system: human coronary vascular smooth muscle cells (CASMCs); experiment: Inhibition experiment of the proliferation of CASMCs (WST-1 formazan assay, absorbance 450 nm); assay type: cell-based
Procedure: The CASMCs were purchased from Clonetics Co., and cultured at 37° C., 5% CO2 using an attached culture kit (SmGM-2) in a culture medium comprising 5% fetal bovine serum (FBS), 2 ng/ml human basic fibroblast growth factor (b-FGF), 5 μg/ml bovine insulin, and 0.5 ng/ml human epidermal growth factor.
The CASMCs were cultured in a 96-well plate as in the Example 1 so that about 70˜80% of the area of each well was occupied by the cells, then put into a nutrition-depletion state for 24 hours under a non-serum condition. Roxythromycin (RXM) was then added as a test compound to the culture medium to give various concentration (0.1, 1.0, 10, 100 μg/ml) and the cells were cultured further for 24˜72 hours. The degree of growth of the cells was assayed at each elapsed time by formazan-formation coloring test with WST-1 agent using Takara Premix WST-1 Cell Proliferation Assay System Kit. Actually, Premix WST-1 was added 10 μl each followed by detection of absorbance at 450 nm by means of a plate reader.
The same experiments were conducted using other anti-bacterial and anti-fungal agents.

CDKIs-p21 = experiment: Western blot analysis of CDKIs-p21 expression in mitogen-stimulated CASMCs; assay type: cell-based, human; conditions: RXM 1-10 μg/ml, under stimulation with the mitogens, FIG. 5
Procedure: (§1) Western blot was carried out as follows. After the completion of SDS gel electrophoresis, the resulting bands were transferred to PVDF membrane, blocked with dry milk, incubated successively with a first antibody (anit-phosphorylated Rb rabbit antibody) and a labeled second antibody (anti-rabbit IgG mouse antibody), developed using alkaline phosphatase immuno blot kit and determined by means of a densitometer. The operating conditions in these steps were standard ones known to those skilled in the art.
(§2) In order to examine what kind of modification of intracellular molecules was responsible for the RXM's inhibition of the production of phosphorylated Rb in CASMCs, the analysis was carried out by means of Western blot in the same conditions as in Example 5, focusing attention on […] (CDKIs) that was known to control the intracellular molecules, especially on its major molecules, CDKIs-p27 and CDKIs-p21.
(§3) As an expresssion level of both CDKIs-p27 and CDKIs-p21 was so low in a normal cell that it could not be detected by Western blot, the analysis was actually done on the cells activated after stimulation with the mitogens in the same way as in Example 5.

CDKIs-p27 = experiment: Western blot analysis of CDKIs-p27 expression in mitogen-stimulated CASMCs; assay type: cell-based, human; conditions: RXM 1-10 μg/ml, under stimulation with the mitogens, FIG. 5
Procedure: as §1, §2, §3

[2] = test system: human coronary vascular smooth muscle cells (CASMCs); experiment: Cell cycle analysis of CASMCs by flow cytometry (propidium iodide); assay type: cell-based; conditions: RXM 10 μg/ml, FIG. 3
Procedure: A further experiment was done using a flow cytometry in order to study when the RXM's direct inhibition activity of the proliferation of CASMCs was effected in a cell cycle.
The flow cytometry method was carried out in accordance with the following procedures and conditions.
The cells were fixed with 70% ethanol for 30 min and incubated with RNase (5 μg/ml) for 30 min. They were then incubated with propidium iodide (10 μg/ml) for 30 min, followed by detection with FACScan (Becton Dickinson Co.).
The transition ratio of the cell cycle was obtained by DNA histogram analysis with ModFit LT software, and shown as % for the total cells.

[3] = test system: phosphorylated Rb (retinoblastoma gene products); experiment: Western blot analysis of phosphorylated Rb in mitogen-stimulated CASMCs; assay type: cell-based, human; conditions: RXM 1-10 μg/ml, FIG. 4
Procedure: It was analyzed whether or not the RXM's inhibition of the stage from G1 phase to S phase of CASMCs was based on the inhibition of phophorylation of Rb (retinoblastoma gene products) that was supposed to be an essential intracellular molecule for transition in the cell cycle. The analysis was carried out using phosphorylated Rb as a marker by means of Western blot with a monoclonal antibody specifically recognizing phosphorylated Rb (Cell Signaling Technology Co.).
As a level of phosphorylated Rb was so low in normal conditions that it could not be detected by Western blot under normal conditions, the analysis was actually done after 5% FBS, 2 ng/ml human b-FGF, 5 μg/ml bovine insulin, and 0.5 ng/ml human epidermal growth factor had been added to the culture medium in order to stimulate CASMCs with mitogens up to an activated state and to increase an amount of the expressed phosphorylated Rb.
as §1, with “The operating conditions in these steps were standard ones known to those skilled in the art.” left out

[4] = background statement; cited from earlier work
mouse = conditions: cited from earlier work
[5] = 50 μg/ml, any time between 24 and 72 hours, FIG. 2

C[C@@H]1[C@H](O)[C@@H](C)/C=C/C=C/C=C/C=C/C=C/C=C/C=C/[C@H](O[C@@H]2O[C@H](C)[C@@H](O)[C@H](N)[C@@H]2O)C[C@@H]2O[C@](O)(C[C@@H](O)C[C@@H](O)[C@H](O)CC[C@@H](O)C[C@@H](O)CC(=O)O[C@H]1C)C[C@H](O)[C@H]2C(=O)O [Amphotericin B]
inhibition of the proliferation of CASMCs ([1]; 50 ng/ml, any time between 24 and 72 hours, FIG. 2): none

CC1(C)S[C@@H]2[C@H](NC(=O)[C@H](N)c3ccccc3)C(=O)N2[C@H]1C(=O)O [Ampicilin]
inhibition of the proliferation of CASMCs [1, 5]: none

CC[C@H]1OC(=O)[C@H](C)[C@@H](O[C@H]2C[C@@](C)(OC)[C@@H](O)[C@H](C)O2)[C@H](C)[C@@H](O[C@@H]2O[C@H](C)C[C@H](N(C)C)[C@H]2O)[C@](C)(O)C[C@@H](C)/C(=N\OCOCCOC)[C@H](C)[C@@H](O)[C@]1(C)O [RXM, roxithromycin]
expression of CDKIs-p21 (CDKIs-p21): no clear difference was observed
expression of CDKIs-p27 in CASMCs (CDKIs-p27): clearly increased in a RXM concentration-dependency manner
inhibition of the proliferation of CASMCs ([1]; RXM 1 μg/ml, any time during the observation (24-72 hours), vs RXM non-added group, FIG. 1A): inhibited the proliferation of CASMCs to a statistically significant level
inhibition of the proliferation of CASMCs ([1]; RXM 10 μg/ml, any time during the observation (24-72 hours), vs RXM non-added group, FIG. 1A): inhibited the proliferation of CASMCs to a statistically significant level
inhibition of the proliferation of CASMCs ([1]; range of 1-100 μg/ml, drug-dependence manner, vs RXM non-added group, FIG. 1B): inhibited the proliferation of CASMCs to a statistically significant level in a drug-dependence manner
inhibition of the stage from G1 phase to S phase in a cell cycle [2]: inhibited a stage from G1 phase to S phase in a cell cycle to a statistically significant level
inhibition of the stage from S phase to G2/M phase [2]: did not inhibit
production of phosphorylated Rb in CASMCs [3]: clearly inhibited

CO[C@H]1C[C@@H]2CC[C@@H](C)[C@@](O)(O2)C(=O)C(=O)N2CCCC[C@H]2C(=O)O[C@H]([C@H](C)C[C@@H]2CC[C@@H](O)[C@H](OC)C2)CC(=O)[C@H](C)/C=C(\C)[C@@H](O)[C@@H](OC)C(=O)[C@H](C)C[C@H](C)/C=C/C=C/C=C/1C [Rapamycin, rapamycin]
cytotoxicity [4]: strong cytotoxicity

CC[C@H]1OC(=O)[C@H](C)[C@@H](O[C@H]2C[C@@](C)(OC)[C@@H](O)[C@H](C)O2)[C@H](C)[C@@H](O[C@@H]2O[C@H](C)C[C@H](N(C)C)[C@H]2O)[C@](C)(O)C[C@@H](C)C(=O)[C@H](C)[C@@H](O)[C@]1(C)O.Cl [erythromaycin hydrochloride, erythromaycin]
Acute toxicity (mouse LD50) (mouse; interperitoreal): 490 ± 30.4 mg/kg
Acute toxicity (mouse LD50) (mouse; vein): 425.6 ± 15.7 mg/kg

Gentamicin
inhibition of the proliferation of CASMCs [1, 5]: none
